Where two headings read alike, the source gives them in different places.
Experiments:
[1] = biological target: T1, EGFR (L858R T790M C797S) (Homo sapiens, UniProt P00533, C797S/L858R/T790M); assay: Biochemical EGFR inhibition assay (Caliper mobility shift), EGFR LRTMCS mutant; conditions: inhibitory activity against EGFR LRTMCS mutant; apparent IC50; read-out: Ext Enz LRTMCS
T1 construct: purchased SignalChem E10-122VG
Summary of the method: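 Kinase reactions at 25 °C run to 10–20% peptide phosphorylation, stopped with 35 mM EDTA. Phosphorylated product and substrate separated electrophoretically by mobility shift. Apparent IC50 from percent activity versus log compound concentration.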

[2] = tested on: phosphorylation of EGFR (Tyr1068) in NCI-H1975 cell line that harbors the EGFR L858R T790M mutations; assay: NCI-H1975 pEGFR AlphaLISA assay; assay type: cell-based; conditions: 4-5 hours incubation, read-out: Ext pEGFR H1975
Summary of the method: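 Phospho-EGFR Tyr1068 AlphaLISA readout: lysates taken from compound-treated H1975 cells (L858R T790M EGFR) after a 4-5 h exposure at 37 °C. Cells had adhered overnight beforehand. IC50 derived by plotting % pEGFR inhibition against log compound concentration.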

[3] = Homo sapiens, NCI-H1975, inhibition of phosphorylation of mutant EGFR in NCI-H1975 cells

T1 sequence (P00533 25-1210 T790M/C797S/L858R): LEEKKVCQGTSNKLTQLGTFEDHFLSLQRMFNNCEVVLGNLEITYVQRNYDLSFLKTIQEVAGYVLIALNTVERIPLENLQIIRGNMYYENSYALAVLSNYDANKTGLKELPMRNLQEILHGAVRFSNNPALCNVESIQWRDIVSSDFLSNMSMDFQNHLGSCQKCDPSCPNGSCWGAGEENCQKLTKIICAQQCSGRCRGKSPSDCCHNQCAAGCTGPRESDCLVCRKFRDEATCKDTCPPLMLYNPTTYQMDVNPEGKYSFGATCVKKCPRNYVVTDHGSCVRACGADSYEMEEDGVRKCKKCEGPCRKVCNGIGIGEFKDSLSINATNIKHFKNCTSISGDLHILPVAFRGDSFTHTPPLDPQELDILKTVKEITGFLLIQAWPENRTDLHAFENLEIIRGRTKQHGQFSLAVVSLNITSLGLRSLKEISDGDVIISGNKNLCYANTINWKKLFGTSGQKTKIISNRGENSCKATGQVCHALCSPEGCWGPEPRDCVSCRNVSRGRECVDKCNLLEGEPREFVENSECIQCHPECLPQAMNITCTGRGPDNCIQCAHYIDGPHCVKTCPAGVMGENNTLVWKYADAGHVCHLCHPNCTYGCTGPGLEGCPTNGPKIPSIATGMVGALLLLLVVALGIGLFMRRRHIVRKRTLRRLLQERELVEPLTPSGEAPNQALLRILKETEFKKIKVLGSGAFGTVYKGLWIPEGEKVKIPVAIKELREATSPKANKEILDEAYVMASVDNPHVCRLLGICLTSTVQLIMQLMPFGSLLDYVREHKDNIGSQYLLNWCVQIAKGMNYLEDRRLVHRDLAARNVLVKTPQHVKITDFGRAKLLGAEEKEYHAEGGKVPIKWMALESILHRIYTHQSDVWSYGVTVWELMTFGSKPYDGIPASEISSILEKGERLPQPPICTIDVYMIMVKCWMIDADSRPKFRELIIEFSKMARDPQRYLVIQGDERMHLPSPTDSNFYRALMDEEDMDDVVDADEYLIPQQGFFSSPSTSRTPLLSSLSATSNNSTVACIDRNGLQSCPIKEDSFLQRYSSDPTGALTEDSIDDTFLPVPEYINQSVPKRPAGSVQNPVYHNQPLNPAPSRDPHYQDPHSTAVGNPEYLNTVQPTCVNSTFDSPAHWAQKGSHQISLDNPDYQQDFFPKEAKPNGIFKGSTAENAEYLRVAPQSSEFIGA

Q: `C[C@H](CO)c1ccc(N2C[C@H](CS(C)(=O)=O)[C@H]2C)c2cnc(Nc3ccnc(N4CC[C@](C)(O)[C@H](F)C4)n3)cc12` (single isomer, unassigned) [Compound 197, (3R,4S)-3-fluoro-1-[4-({5-[(2S)-1-hydroxypropan-2-yl]-8-[(2R,3S)-3-(methanesulfonylmethyl)-2-methylazetidin-1-yl]isoquinolin-3-yl}amino)pyrimidin-2-yl]-4-methylpiperidin-4-ol or (3R,4S)-3-fluoro-1-[4-({5-[(2R)-1-hydroxypropan-2-yl]-8-[(2R,3S)-3-(methanesulfonylmethyl)-2-methylazetidin-1-yl]isoquinolin-3-yl}amino)pyrimidin-2-yl]-4-methylpiperidin-4-ol] was tested. Which IC50 [1] did it give?
A: ≤ 15 nM

Q: What about the IC50 [2, 3] of the same compound?
A: 30.1 to 50 nM

Q: How did the IC50 [1] turn out when `CO[C@@H]1CCN(c2nccc(Nc3cc4c(F)ccc(N5C[C@H](CS(C)(=O)=O)[C@H]5C)c4cn3)n2)C[C@@H]1F` [Compound 36, 5-fluoro-N-{2-[(3S,4R)-3-fluoro-4-methoxypiperidin-1-yl]pyrimidin-4-yl}-8-[(2R,3S)-3-(methanesulfonylmethyl)-2-methylazetidin-1-yl]isoquinolin-3-amine] was run?
A: ≤ 15 nM

Q: What about the IC50 [2, 3] of the same compound?
A: ≤ 10 nM

Q: `[2H]C([2H])([2H])O[C@@H]1CCN(c2nccc(Nc3cc4c(C(C)C)cnc(N5CC(CS(C)(=O)=O)C5)c4cn3)n2)C[C@@H]1F` [Compound 264, N-{2-[(3S,4R)-3-fluoro-4-(^2H3)methoxypiperidin-1-yl]pyrimidin-4-yl}-8-[3-(methanesulfonylmethyl)azetidin-1-yl]-5-(propan-2-yl)-2,7-naphthyridin-3-amine] was tested. Which IC50 [1] did it give?
A: ≤ 15 nM

Q: And the IC50 [2, 3]?
A: ≤ 10 nM

Q: For `CO[C@H]1CCN(c2nccc(Nc3cc4c(C(C)C)ccc(N5C[C@H](CS(C)(=O)=O)[C@H]5C)c4cn3)n2)C[C@@H]1N` (single isomer, unassigned) [Compound 89], which IC50 [1] is on record?
A: ≤ 15 nM

Q: And the IC50 [2, 3]?
A: ≤ 10 nM

Q: Which IC50 [1] does the source give for `CO[C@@H]1CCN(c2nccc(Nc3cc4c(C(C)C)ccc(N5C[C@H](CS(C)(=O)=O)[C@H]5C)c4cn3)n2)C[C@H]1C#N` (single isomer, unassigned) [Compound 166, (3S,4R)-1-[4-({8-[(2R,3S)-3-(methanesulfonylmethyl)-2-methylazetidin-1-yl]-5-(propan-2-yl)isoquinolin-3-yl}amino)pyrimidin-2-yl]-4-methoxypiperidine-3-carbonitrile or (3R,4S)-1-[4-({8-[(2R,3S)-3-(methanesulfonylmethyl)-2-methylazetidin-1-yl]-5-(propan-2-yl)isoquinolin-3-yl}amino)pyrimidin-2-yl]-4-methoxypiperidine-3-carbonitrile] here?
A: 30.1 to 100 nM

Q: What about the IC50 [2, 3] of the same compound?
A: 30.1 to 50 nM

Q: How did the IC50 [1] turn out when `CO[C@@H]1[C@H](F)CN(c2nccc(Nc3cc4c(C(C)C)ccc(N5C[C@H](CS(C)(=O)=O)[C@H]5C)c4cn3)n2)C[C@@H]1O` (single isomer, unassigned) [Compound 203, (3R,4R,5S)-5-fluoro-1-[4-({8-[(2R,3S)-3-(methanesulfonylmethyl)-2-methylazetidin-1-yl]-5-(propan-2-yl)isoquinolin-3-yl}amino)pyrimidin-2-yl]-4-methoxypiperidin-3-ol or (3S,4S,5R)-5-fluoro-1-[4-({8-[(2R,3S)-3-(methanesulfonylmethyl)-2-methylazetidin-1-yl]-5-(propan-2-yl)isoquinolin-3-yl}amino)pyrimidin-2-yl]-4-methoxypiperidin-3-ol] was run?
A: 15.1 to 20 nM

Q: What about the IC50 ([2]; inhibition of phosphorylation of mutant EGFR in NCI-H1975 cells) of the same compound?
A: ≤ 10 nM

Q: For `CCS(=O)(=O)C[C@H]1CN(c2nnc(C(C)C)c3cc(Nc4ccnc(N5CC[C@H](OC)[C@H](F)C5)n4)ncc23)[C@@H]1C` [Compound 207, N-{4-[(2R,3S)-3-[(ethanesulfonyl)methyl]-2-methylazetidin-1-yl]-1-(propan-2-yl)pyrido[3,4-d]pyridazin-7-yl}-2-[(3R,4S)-3-fluoro-4-methoxypiperidin-1-yl]pyrimidin-4-amine], which IC50 [1] is on record?
A: ≤ 15 nM

Q: And the IC50 [2, 3]?
A: 10.1 to 20 nM

Q: Which results are given for `CC(C)c1cnc(N2C[C@H](CS(C)(=O)=O)[C@H]2C)c2cnc(Nc3ccnc(N4CC[C@](C)(O)[C@H](F)C4)n3)cc12` (single isomer, unassigned) [Compound 135]?
A: IC50 [1]: ≤ 15 nM; IC50 [2, 3]: ≤ 10 nM
